Experimental data as given in patent US20240158446A1, “CYCLIC COMPOUND HAVING SELECTIVE INHIBITORY ACTION ON KRAS OVER HRAS AND NRAS” (CHUGAI SEIYAKU KABUSHIKI KAISHA, priority 2021, published 2024).
Like-named read-outs stand apart in the source and are kept apart here.

Experiments:
[1] = biological target: GDP-bound NRAS wild-type protein (Homo sapiens, UniProt P01111); test: Binding to NRAS by surface plasmon resonance (SPR), Single Cycle Kinetics; settings: for NRAS/KRAS (ratio of KD value with respect to GDP-bound NRAS wild-type protein to KD value with respect to KRAS): SPR KD ratio NRAS/KRAS, class symbols; for NRAS/KRAS (ratio of KD value for NRAS to KD value for KRAS): SPR, GDP-bound NRAS wild-type protein vs GDP-bound KRAS wild-type protein
Sequence of GDP-bound NRAS wild-type protein (P01111 whole entry): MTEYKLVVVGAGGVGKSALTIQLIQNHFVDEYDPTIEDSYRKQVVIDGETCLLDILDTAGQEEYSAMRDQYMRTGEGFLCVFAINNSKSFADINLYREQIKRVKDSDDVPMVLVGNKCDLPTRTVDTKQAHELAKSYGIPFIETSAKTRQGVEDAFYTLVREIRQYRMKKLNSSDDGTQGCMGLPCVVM

[2] = biological target: GDP-bound KRAS wild-type protein (Homo sapiens, UniProt P01116); test: Binding to KRAS by surface plasmon resonance (SPR), Single Cycle Kinetics; settings: GDP-bound KRAS wild-type protein, read-out: KRAS KD
Sequence of GDP-bound KRAS wild-type protein (P01116 whole entry): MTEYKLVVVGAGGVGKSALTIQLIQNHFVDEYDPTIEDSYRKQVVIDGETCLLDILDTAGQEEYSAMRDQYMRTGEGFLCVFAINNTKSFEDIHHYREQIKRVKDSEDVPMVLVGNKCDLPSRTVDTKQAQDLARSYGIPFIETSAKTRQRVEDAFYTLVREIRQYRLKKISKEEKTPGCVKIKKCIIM

[3] = tested on: human lung cancer strain NCI-H441;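 note: cell proliferation inhibition after four days measured by CellTiter-Glo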
[4] = biological target: GDP-bound HRAS wild-type protein (Homo sapiens, UniProt P01112); test: Binding to HRAS by surface plasmon resonance (SPR), Single Cycle Kinetics; settings: for HRAS/KRAS (ratio of KD value with respect to GDP-bound HRAS wild-type protein to KD value with respect to KRAS): SPR KD ratio HRAS/KRAS, class symbols; for HRAS/KRAS (ratio of KD value for HRAS to KD value for KRAS): SPR, GDP-bound HRAS wild-type protein vs GDP-bound KRAS wild-type protein
Sequence of GDP-bound HRAS wild-type protein (P01112 whole entry): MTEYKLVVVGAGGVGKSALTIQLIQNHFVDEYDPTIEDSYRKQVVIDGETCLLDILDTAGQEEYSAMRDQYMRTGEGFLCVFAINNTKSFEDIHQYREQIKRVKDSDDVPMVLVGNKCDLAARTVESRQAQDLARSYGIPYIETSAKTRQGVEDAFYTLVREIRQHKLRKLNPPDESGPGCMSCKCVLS

[5] = SPR Single Cycle Kinetics, 1:1 binding model
[6] = SPR, Single Cycle Kinetics, 1:1 binding model

Compound	NRAS/KRAS (ratio of KD value with respect to GDP-bound NRAS wild-type protein to KD value with respect to KRAS) [1]	Kd [2, 5]	IC50 [3]	HRAS/KRAS (ratio of KD value with respect to GDP-bound HRAS wild-type protein to KD value with respect to KRAS) [4]	NRAS/KRAS (ratio of KD value for NRAS to KD value for KRAS) [1]	Kd ([2]; SPR, Single Cycle Kinetics)	HRAS/KRAS (ratio of KD value for HRAS to KD value for KRAS) [4]	NRAS/KRAS (ratio of KD value for NRAS to KD value for KRAS) ([1]; KD ratio class)	Kd [2, 6]	HRAS/KRAS (ratio of KD value for HRAS to KD value for KRAS) ([4]; KD ratio class)
CCC(CC)[C@H]1C(=O)N(C)[C@H](C(=O)N(C)C)CC(=O)N(C)[C@@H](COC)C(=O)N[C@@H]([C@@H](C)CC)C(=O)N(C2CC2)CC(=O)N(C)[C@H]2C/C=C\CCN(C2=O)[C@@H](CC2CCC(F)(F)CC2)C(=O)N(C)CC(=O)N[C@@H](CCc2cc(F)c(C(F)(F)F)c(F)c2)C(=O)N2C[C@H](OC3CCC3)C[C@H]2C(=O)NC2(CC(C)(C)C2)C(=O)N1C [PP2615]	A (a compound having 10 or more and less than 20 is denoted as A)	2 nM	88.7 nM	A (a compound having 10 or more and less than 20 is denoted as A)	–	–	–	–	–	–
CCO[C@@H]1C[C@H]2C(=O)NC3(CCC3)C(=O)N(C)[C@@H](C3CCCC3)C(=O)N(C)[C@H](C(=O)N3CCOCC3)CC(=O)N(C)[C@@H](Cc3ccc(Cl)c(Cl)c3)C(=O)N[C@@H]([C@@H](C)CC)C(=O)N(C)CC(=O)N(C)[C@H]3CCCCCN(C3=O)[C@@H](Cc3ccc(C(F)(F)F)cc3)C(=O)N(C)CC(=O)N[C@@H](CCc3cc(F)c(C(F)(F)F)c(F)c3)C(=O)N2C1 [PP1168]	–	–	338 nM	–	A (a compound having 10 or more and less than 20 is denoted as A)	1.8 nM	A (a compound having 10 or more and less than 20 is denoted as A)	–	–	–
CCC[C@H]1C(=O)N[C@@H]([C@@H](C)CC)C(=O)N2C[C@@H](OC)C[C@H]2C(=O)N(C)[C@H]2C/C=C\CCN(C2=O)[C@@H](Cc2ccc(C)cc2)C(=O)N(C)CC(=O)N[C@@H](CCc2ccc(C(F)(F)F)c(OC)c2)C(=O)N2C[C@H](OCC)C[C@H]2C(=O)NC2(CC(C)(C)C2)C(=O)N(C)[C@@H](C2CCCC2)C(=O)N(C)[C@H](C(=O)N(C)C)CC(=O)N1C [PP2557]	A (a compound having 10 or more and less than 20 is denoted as A)	0.3 nM	14.2 nM	B (a compound having 3 or more and less than 10 is denoted as B)	–	–	–	–	–	–
CCOC[C@H]1C(=O)N[C@@H]([C@@H](C)CC)C(=O)N(C)CC(=O)N(C)[C@H]2C/C=C\CCN(C2=O)[C@@H](Cc2ccc(C(F)(F)F)cc2)C(=O)N(C)CC(=O)N[C@@H](CCc2ccc(Cl)c(Cl)c2)C(=O)N2C[C@H](OCC)C[C@H]2C(=O)NC2(CC(C)(C)C2)C(=O)N(C)[C@@H](CC(C)(C)C)C(=O)N(C)[C@H](C(=O)N(C)C)CC(=O)N1C [PP2740]	AA (a compound having 20 or more is denoted as AA)	0.17 nM	24.2 nM	A (a compound having 10 or more and less than 20 is denoted as A)	–	–	–	–	–	–
CCO[C@@H]1C[C@H]2C(=O)NC3(CC(C)(C)C3)C(=O)N(C)[C@@H](C(CC)CC)C(=O)N(C)[C@H](C(=O)N(C)C)CC(=O)N(C)[C@@H](COC)C(=O)N[C@@H]([C@@H](C)CC)C(=O)N(C3CC3)CC(=O)N(C)[C@H]3C/C=C\CCN(C3=O)[C@@H](CC3CCCCC3)C(=O)N(C)CC(=O)N[C@@H](CCc3cc(F)c(C(F)(F)F)c(F)c3)C(=O)N2C1 [PP2564]	A (a compound having 10 or more and less than 20 is denoted as A)	7.6 nM	222 nM	A (a compound having 10 or more and less than 20 is denoted as A)	–	–	–	–	–	–
CC[C@H](C)[C@@H]1NC(=O)[C@H](COC)N(C)C(=O)C[C@@H](C(=O)N2CCCCC2)N(C)C(=O)[C@H](C2CCCC2)N(C)C(=O)C2(CC(C)(C)C2)NC(=O)[C@@H]2C[C@@H](OC(C)C)CN2C(=O)[C@H](CCc2ccc(Cl)c(Cl)c2)NC(=O)CN(C)C(=O)[C@H](Cc2ccc(C(F)(F)F)cc2)N2CC/C=C\C[C@@H](C2=O)N(C)C(=O)CN(C)C1=O [PP2671]	A (a compound having 10 or more and less than 20 is denoted as A)	0.67 nM	26.3 nM	A (a compound having 10 or more and less than 20 is denoted as A)	–	–	–	–	–	–
CCO[C@@H]1C[C@H]2C(=O)NC3(CCC3)C(=O)N(C)[C@@H](C3CCCC3)C(=O)N(C)[C@H](C(=O)N3CCOCC3)CC(=O)N(C)[C@@H](Cc3ccsc3)C(=O)N[C@@H]([C@@H](C)CC)C(=O)N(C)CC(=O)N(C)[C@H]3CCCCCN(C3=O)[C@@H](Cc3ccc(C(F)(F)F)cc3)C(=O)N(C)CC(=O)N[C@@H](CCc3cc(F)c(C(F)(F)F)c(F)c3)C(=O)N2C1 [PP1164]	–	–	95.9 nM	–	B (a compound having 3 or more and less than 10 is denoted as B)	0.52 nM	B (a compound having 3 or more and less than 10 is denoted as B)	–	–	–
CCC[C@@H]1C[C@H]2C(=O)NC3(CC(C)(C)C3)C(=O)N(C)[C@@H](C3CCCC3)C(=O)N(C)[C@H](C(=O)N(C)C)CC(=O)N(C)[C@@H](C)C(=O)N[C@@H]([C@@H](C)CC)C(=O)N(C)CC(=O)N(C)[C@H]3C/C=C\CCN(C3=O)[C@@H](Cc3ccc(C(F)(F)F)cc3)C(=O)N(C)CC(=O)N[C@@H](CCc3cc(F)c(C(F)(F)F)c(F)c3)C(=O)N2C1 [PP2273]	–	–	1.6 nM	–	AA (a compound having 20 or more is denoted as AA)	0.19 nM	A (a compound having 10 or more and less than 20 is denoted as A)	–	–	–
CCC[C@H]1C(=O)N[C@@H]([C@@H](C)CC)C(=O)N(C)CC(=O)N(C)[C@H]2C/C=C\CCN(C2=O)[C@@H](Cc2ccc(C(F)(F)F)cc2)C(=O)N(C)CC(=O)N[C@@H](CCc2ccc3sccc3c2)C(=O)N2C[C@H](OCC)C[C@H]2C(=O)NC2(CCC2)C(=O)N(C)[C@@H](C2CCCC2)C(=O)N(C)[C@H](C(=O)N(C)C)CC(=O)N1C [PP1256]	–	–	69 nM	–	–	–	–	A (a compound having 10 or more and less than 20 is denoted as A)	0.36 nM	A (a compound having 10 or more and less than 20 is denoted as A)
CCO[C@@H]1C[C@H]2C(=O)NC3(CCC3)C(=O)N(C)[C@@H](C3CCCC3)C(=O)N(C)[C@H](C(=O)N(C)C)CC(=O)N(C)[C@@H](CSC)C(=O)N[C@@H]([C@@H](C)CC)C(=O)N(C)CC(=O)N(C)[C@H]3C/C=C\CCN(C3=O)[C@@H](CC3CCC(F)(F)CC3)C(=O)N(C)CC(=O)N[C@@H](CCc3cc(F)c(C(F)(F)F)c(F)c3)C(=O)N2C1 [PP1449, (2S,8S,12R,14S,20S,23S,27R,30S,36S,38Z)-20-cyclopentyl-2-[(4,4-difluorocyclohexyl)methyl]-8-[2-[3,5-difluoro-4-(trifluoromethyl)phenyl]ethyl]-12-ethoxy-N,N,4,19,22,26,32,35-octamethyl-30-[(1 S)-1-methylpropyl]-27-(methylsulfanylmethyl)-3,6,9,15,18,21,25,28,31,34,42-undecaoxo-spiro[1,4,7,10,16,19,22,26,29,32,35-undecazatricyclo[34.5.1.0^10,14]dotetracont-38-ene-17,1′-cyclobutane]-23-carboxamide]	–	–	30.6 nM	–	–	–	–	A (a compound having 10 or more and less than 20 is denoted as A)	0.098 nM	A (a compound having 10 or more and less than 20 is denoted as A)
CCC(CC)[C@H]1C(=O)N(C)[C@H](C(=O)N(C)C)CC(=O)N(C)[C@@H](COC)C(=O)N[C@@H]([C@@H](C)CC)C(=O)N(C)CC(=O)N(C)[C@H]2C/C=C\CCN(C2=O)[C@@H](CC2CCC(F)(F)CC2)C(=O)N(C)CC(=O)N[C@@H](CCc2ccc(C(F)(F)F)c(Cl)c2)C(=O)N2C[C@@H](C)C[C@H]2C(=O)NC2(CC(C)(C)C2)C(=O)N1C [PP2454]	–	–	80.2 nM	–	AA (a compound having 20 or more is denoted as AA)	1.2 nM	A (a compound having 10 or more and less than 20 is denoted as A)	–	–	–
CC[C@H](C)[C@@H]1NC(=O)[C@H](CC2CC2)N(C)C(=O)C[C@@H](C(=O)N2CCOCC2)N(C)C(=O)[C@H](C2CCCC2)N(C)C(=O)C2(CCC2)NC(=O)[C@@H]2CCCN2C(=O)[C@H](CCc2ccc(C(F)(F)F)c(Cl)c2)NC(=O)CN(C)C(=O)[C@H](Cc2ccc(C(F)(F)F)cc2)N2C[C@H](C)CC[C@@H](C2=O)N(C)C(=O)[C@@H]2CCN2C1=O [PP1341]	–	–	46.3 nM	–	–	–	–	A (a compound having 10 or more and less than 20 is denoted as A)	0.81 nM	B (a compound having 3 or more and less than 10 is denoted as B)
